Results reported in patent publication US20110256298A1, “BEER AND BEER-BASED BEVERAGES AND METHOD OF MODIFICATION OF POLYPHENOLS AND SILICON CONTENT IN THESE BEVERAGES” (priority 2009, published 2011).
≈ marks a conversion by molar mass, not a printed value.

Columns and labels:
[1] = Total amount of Silybum marianum polyphenols in bottled beer by HPLC; assay type: physicochemical; conditions: example 1 mixture dosed at 100 mg silymarin per liter; for Content in DIA beer: bottled DIA beer; for Content in PILS 12% beer: bottled PILS 12% beer; for Content in Non-alcoholic beer: bottled non-alcoholic beer
Protocol: The total amount of Silybum marianum polyphenols in beers was determined by HPLC in bottled beer as a sum of silymarin components.

[2] = physchem; assay type: physicochemical; conditions: for solubility thermodynamic: aqueous with cosolvent or surfactant or cyclodextrin, thermodynamic from solid
Text: The equilibrium solubility of silymarin in two kinds of beer after the addition of the water-soluble mixture with the Silybum marianum polyphenols according to example 1 are shown in the following table: […]

Row | Compound | Content in DIA beer [1] [mg/L] | Content in PILS 12% beer [1] [mg/L] | Content in Non-alcoholic beer [1] [mg/L] | equilibrium solubility in Lager Radegast Premium [2] [µg/mL] | equilibrium solubility in Non-alcoholic Radegast Birell [2] [µg/mL] | solubility thermodynamic ([2]; equilibrium solubility in Lager Radegast Premium) [µg/mL] | solubility thermodynamic ([2]; equilibrium solubility in Non-alcoholic Radegast Birell) [µg/mL]
1 | COc1cc([C@H]2Oc3cc([C@H]4Oc5cc(O)cc(O)c5C(=O)[C@@H]4O)ccc3O[C@@H]2CO)ccc1O [Silybin A] | 5.7 | 15.1 | 11.5 | 43.03 | 38.22 | – | –
2 | COc1cc([C@@H]2Oc3cc([C@H]4Oc5cc(O)cc(O)c5C(=O)[C@@H]4O)ccc3O[C@H]2CO)ccc1O [Silybin B] | 15.4 | 28.4 | 29.4 | 85.18 | 75.70 | – | –
3 | COc1cc([C@@H]2Oc3c(O)cc([C@H]4Oc5cc(O)cc(O)c5C(=O)[C@@H]4O)cc3[C@H]2CO)ccc1O [Silychristin] | 32.7 | 42.1 | 40.5 | 187.51 | 176.46 | – | –
4 | COc1cc([C@@H]2[C@H]3CO[C@@]4(O)C(=O)[C@@H]2C=C([C@H]2Oc5cc(O)cc(O)c5C(=O)[C@@H]2O)[C@@H]34)ccc1O [Silydianin] | – | – | – | – | – | 66.1 (≈ 137 µM) | 61.7 (≈ 128 µM)
5 | Isosilybin A + B | 20.9 | 15.3 | 12.5 | 54.33 | 48.22 | – | –
6 | silymarin | – | – | – | 436.17 | 400.31 | – | –
